Assay results as given in patent US20150225762A1, “SAME-DAY BLOOD CULTURE WITH DIGITAL MICROSCOPY” (ACCELERATE DIAGNOSTICS, INC., priority 2012, published 2015).

Tests used:
Ecol 35218 [1] = experiment: Plate count of live bacteria after killing treatment; format: cell-based, E. coli
Paer 27853 [2] = experiment: as above; format: cell-based, P. aeruginosa
Paer 27853 [3] = experiment: FISH detection of live and killed bacteria with or without protease digestion; format: cell-based, P. aeruginosa
Saur 12600 [4] = experiment: Plate count of live bacteria after killing treatment; format: cell-based, S. aureus
Kpne 13882 [5] = experiment: as above
Saur 12600 [6] = experiment: FISH detection of live and killed bacteria with or without protease digestion; format: cell-based, S. aureus
Ecol 35218 [7] = experiment: as above; format: cell-based, E. coli
Kpne 13882 [8] = experiment: as above; format: cell-based, K. pneumoniae
E. coli = experiment: Protease-dependent bacterial growth inhibition in rapid blood culture (plating); format: cell-based; settings: for Overall rate / Fold Growth: 6 hour run; for Fold Growth: over starting number
Protocol: Blood culture samples were treated with two different concentrations of protease to determine if protease used at a high concentration could produce inhibition of bacterial growth. Identification of a protease concentration dependent inhibitory effect on the growth rate of microbial cells is an important component of optimization of a rapid blood culture method. Growth of E. coli in simulated bacteremic blood cultures treated with a working protease concentration (0.2 mg/mL) and high protease concentration (20 mg/mL) was compared over a six (6) hour growth and digestion period.
A mock blood culture specimen was created by addition of 10 mL of blood to a BioMerieux BacT/Alert Standard Aerobic bottle. A 1.0 mL portion of this specimen was used for each condition. Each sample was treated with saponin to a final concentration of 4 mg/mL and SPS to a final concentration of 0.96 mg/mL. Samples were then spiked with E. coli bacteria to a final concentration of 1×10^2 cfu/mL. The samples were treated with a Pronase solution containing either 0.2 mg/mL or 20 mg/mL. Samples were incubated at 35° C. with agitation for 6 hours. A portion of each sample was removed for concentration determination at 2 hour time points during the incubation. The sampled bacteria were plated in 10-fold dilution series to determine the concentration of bacteria at each time point. Interval-by-interval growth rates, overall growth rate, and fold increase versus the starting concentration were determined using the calculated concentrations at each time point.

[9] = 0 hr, after gentamycin 100 micrograms per mL 1 hour or 80% ethanol
[10] = gentamycin 1 hour or 80% ethanol
[11] = 1 hour, with protease (0.2 mg/mL Pronase)
[12] = 1 hour, with protease (0.2 mg/mL Pronase), cells live or pre-killed as labelled
[13] = 4 hour, with protease (0.2 mg/mL Pronase)
[14] = 4 hour, with protease (0.2 mg/mL Pronase), cells live or pre-killed as labelled
[15] = High protease (20 mg/mL Pronase)
[16] = Low protease (0.2 mg/mL Pronase)

`CCO` [Ethanol, ethanol] was tested, and the “Conc of live bacteria by plating” value (Ecol 35218 [1]; [9]) was less than 10 cfu/mL, the “Killing by plating, in words” value (Ecol 35218 [1]; [10]) was “no viable cells” and the “Conc of live bacteria by plating” value (Paer 27853 [2]; [9]) was less than 10 cfu/mL. The “Killing by plating, in words” value (Paer 27853 [2]; [10]) was “no viable cells”, the “FISH Conc” value (Paer 27853 [3]; 1 hour, no protease) was 3.0 × 10^5 cells/mL and the “Positive Detection?” value (Paer 27853 [3]; 1 hour, no protease) was “Yes (A detection threshold of 1×10^4 cells per mL was used as the threshold for a positive call in the FISH assay)”. For the same compound, the “Positive Detection?” value (Paer 27853 [3]; [11]) was “No (A detection threshold of 1×10^4 cells per mL was used as the threshold for a positive call in the FISH assay)”, the “FISH Conc” value (Paer 27853 [3]; [12]) was 6.7 × 10^3 cells/mL and the “FISH Conc” value (Paer 27853 [3]; 4 hour, no protease) was 1.3 × 10^5 cells/mL. The “Positive Detection?” value (Paer 27853 [3]; 4 hour, no protease) was “Yes (A detection threshold of 1×10^4 cells per mL was used as the threshold for a positive call in the FISH assay)”, the “Positive Detection?” value (Paer 27853 [3]; [13]) was “No (A detection threshold of 1×10^4 cells per mL was used as the threshold for a positive call in the FISH assay)” and the “FISH Conc” value (Paer 27853 [3]; [14]) was <1 × 10^3 cells/mL. The “Conc of live bacteria by plating” value (Saur 12600 [4]; [9]) was less than 10 cfu/mL, the “Killing by plating, in words” value (Saur 12600 [4]; [10]) was “no viable cells” and the “Conc of live bacteria by plating” value (Kpne 13882 [5]; [9]) was less than 10 cfu/mL. The “Killing by plating, in words” value (Kpne 13882 [5]; [10]) was “no viable cells”, the “FISH Conc” value (Saur 12600 [6]; 1 hour, no protease) was 3.4 × 10^5 cells/mL and the “Positive Detection?” value (Saur 12600 [6]; 1 hour, no protease) was “Yes (A detection threshold of 1×10^4 cells per mL was used as the threshold for a positive call in the FISH assay)”. The “Positive Detection?” value (Saur 12600 [6]; [11]) was “Yes (A detection threshold of 1×10^4 cells per mL was used as the threshold for a positive call in the FISH assay)”, the “FISH Conc” value (Saur 12600 [6]; [12]) was 2.5 × 10^5 cells/mL and the “FISH Conc” value (Saur 12600 [6]; 4 hour, no protease) was 1.9 × 10^5 cells/mL. For the same compound, the “Positive Detection?” value (Saur 12600 [6]; 4 hour, no protease) was “Yes (A detection threshold of 1×10^4 cells per mL was used as the threshold for a positive call in the FISH assay)”, the “Positive Detection?” value (Saur 12600 [6]; [13]) was “Yes (A detection threshold of 1×10^4 cells per mL was used as the threshold for a positive call in the FISH assay)” and the “FISH Conc” value (Saur 12600 [6]; [14]) was 1.2 × 10^5 cells/mL. The “FISH Conc” value (Ecol 35218 [7]; 1 hour, no protease) was 4.3 × 10^4 cells/mL, the “Positive Detection?” value (Ecol 35218 [7]; 1 hour, no protease) was “Yes (A detection threshold of 1×10^4 cells per mL was used as the threshold for a positive call in the FISH assay)” and the “Positive Detection?” value (Ecol 35218 [7]; [11]) was “No (A detection threshold of 1×10^4 cells per mL was used as the threshold for a positive call in the FISH assay)”. For the same compound, the “FISH Conc” value (Ecol 35218 [7]; [12]) was 3.3 × 10^3 cells/mL, the “FISH Conc” value (Ecol 35218 [7]; 4 hour, no protease) was 3.7 × 10^4 cells/mL and the “Positive Detection?” value (Ecol 35218 [7]; 4 hour, no protease) was “Yes (A detection threshold of 1×10^4 cells per mL was used as the threshold for a positive call in the FISH assay)”. For the same compound, the “Positive Detection?” value (Ecol 35218 [7]; [13]) was “No (A detection threshold of 1×10^4 cells per mL was used as the threshold for a positive call in the FISH assay)”, the “FISH Conc” value (Ecol 35218 [7]; [14]) was 6.7 × 10^3 cells/mL and the “FISH Conc” value (Kpne 13882 [8]; 1 hour, no protease) was 4.9 × 10^5 cells/mL. For the same compound, the “Positive Detection?” value (Kpne 13882 [8]; 1 hour, no protease) was “Yes (A detection threshold of 1×10^4 cells per mL was used as the threshold for a positive call in the FISH assay)”, the “Positive Detection?” value (Kpne 13882 [8]; [11]) was “Yes (A detection threshold of 1×10^4 cells per mL was used as the threshold for a positive call in the FISH assay)” and the “FISH Conc” value (Kpne 13882 [8]; [12]) was 6.8 × 10^5 cells/mL. For the same compound, the “FISH Conc” value (Kpne 13882 [8]; 4 hour, no protease) was 4.1 × 10^5 cells/mL, the “Positive Detection?” value (Kpne 13882 [8]; 4 hour, no protease) was “Yes (A detection threshold of 1×10^4 cells per mL was used as the threshold for a positive call in the FISH assay)” and the “Positive Detection?” value (Kpne 13882 [8]; [13]) was “Yes (A detection threshold of 1×10^4 cells per mL was used as the threshold for a positive call in the FISH assay)”. For the same compound, the “FISH Conc” value (Kpne 13882 [8]; [14]) was 2.8 × 10^5 cells/mL.
For Pronase [Protease], the “Positive Detection?” value (Paer 27853 [3]; [11]) was “Yes (A detection threshold of 1×10^4 cells per mL was used as the threshold for a positive call in the FISH assay)”, the “FISH Conc” value (Paer 27853 [3]; [12]) was 9.0 × 10^4 cells/mL and the “Positive Detection?” value (Paer 27853 [3]; [13]) was “Yes (A detection threshold of 1×10^4 cells per mL was used as the threshold for a positive call in the FISH assay)”. The “FISH Conc” value (Paer 27853 [3]; [14]) was 5.9 × 10^6 cells/mL, the “lower overall increase with the higher concentration of protease” value (E. coli; 20 mg/mL versus 0.2 mg/mL, 6 hour incubation) was “approximately 8.5 fold” and the “Calculated growth rate 0→2 Hours” value (E. coli; [15]) was 0.70. The “Calculated growth rate 2→4 Hours” value (E. coli; [15]) was 2.74, the “Calculated growth rate 4→6 Hours” value (E. coli; [15]) was 2.22 and the Conc of bacteria (E. coli; High protease (20 mg/mL Pronase), 2 hr) was 2.7 × 10^2 cfu/mL. For the same compound, the Conc of bacteria (E. coli; High protease (20 mg/mL Pronase), 4 hr) was 1.2 × 10^4 cfu/mL, the Overall rate (E. coli; [15]) was 1.89 and the Conc of bacteria (E. coli; High protease (20 mg/mL Pronase), 6 hr) was 2.6 × 10^5 cfu/mL. The “Fold Growth” value (E. coli; [15]) was 2,600, the “Calculated growth rate 0→2 Hours” value (E. coli; [16]) was 0.60 and the “Calculated growth rate 2→4 Hours” value (E. coli; [16]) was 2.96. The “Calculated growth rate 4→6 Hours” value (E. coli; [16]) was 3.65, the Conc of bacteria (E. coli; Low protease (0.2 mg/mL Pronase), 2 hr) was 2.3 × 10^2 cfu/mL and the Conc of bacteria (E. coli; Low protease (0.2 mg/mL Pronase), 4 hr) was 1.4 × 10^4 cfu/mL. The Overall rate (E. coli; [16]) was 2.40, the Conc of bacteria (E. coli; Low protease (0.2 mg/mL Pronase), 6 hr) was 2.2 × 10^6 cfu/mL and the “Fold Growth” value (E. coli; [16]) was 22,000. For the same compound, the “Positive Detection?” value (Saur 12600 [6]; [11]) was “Yes (A detection threshold of 1×10^4 cells per mL was used as the threshold for a positive call in the FISH assay)”, the “FISH Conc” value (Saur 12600 [6]; [12]) was 1.6 × 10^6 cells/mL and the “Positive Detection?” value (Saur 12600 [6]; [13]) was “Yes (A detection threshold of 1×10^4 cells per mL was used as the threshold for a positive call in the FISH assay)”. The “FISH Conc” value (Saur 12600 [6]; [14]) was 4.2 × 10^7 cells/mL, the “Positive Detection?” value (Ecol 35218 [7]; [11]) was “Yes (A detection threshold of 1×10^4 cells per mL was used as the threshold for a positive call in the FISH assay)” and the “FISH Conc” value (Ecol 35218 [7]; [12]) was 2.3 × 10^6 cells/mL. The “Positive Detection?” value (Ecol 35218 [7]; [13]) was “Yes (A detection threshold of 1×10^4 cells per mL was used as the threshold for a positive call in the FISH assay)”, the “FISH Conc” value (Ecol 35218 [7]; [14]) was 1.8 × 10^7 cells/mL and the “Positive Detection?” value (Kpne 13882 [8]; [11]) was “Yes (A detection threshold of 1×10^4 cells per mL was used as the threshold for a positive call in the FISH assay)”. The “FISH Conc” value (Kpne 13882 [8]; [12]) was 7.7 × 10^4 cells/mL, the “Positive Detection?” value (Kpne 13882 [8]; [13]) was “Yes (A detection threshold of 1×10^4 cells per mL was used as the threshold for a positive call in the FISH assay)” and the “FISH Conc” value (Kpne 13882 [8]; [14]) was 4.3 × 10^6 cells/mL.
